In patent US10654883B2, “Inorganic salts of nicotinic acid mononucleotide as anti-aging agents” (Jumpstart Fertility Pty Ltd, priority 2018, dated 2020):

Columns and labels:
[1] = Solution stability in aqueous solution (D2O), degradation measured by 1H-NMR
Method: Three separate 5 mg samples of the same batch of NaMN were completely dissolved without stirring in 0.5 ml of deuterated water (D2O), each in three separate NMR tubes. All three samples were analysed at the time of dissolution via ^1H-NMR for purity.
The first NMR tube was maintained at a temperature of 25° C. The second NMR tube was maintained at a temperature of 40° C. The third NMR tube was maintained at a temperature of 60° C. Degradation of the control NaMN was measured using ^1H-NMR. Degradation of the control NaMN in aqueous solutions was analyzed over a period of 36 weeks (see FIG. 1).
The stability of the salts I-001, I-002, I-003, and I-004 in aqueous solution phase was also tested. Following the same procedure described in the control NaMN, the respective solutions of I-001, I-002, I-003, and I-004 were maintained at 25° C. and analysed for 38 weeks.

[2] = tested on: COV434 cells; assay: NAD cell assay (NAD cycling method) in COV434 cells; type: cell-based, human; settings: 200 uM, 4 hr; for Fold increase compared to NaMN (NAD level): NAD normalised to protein
Method: NAD levels were assayed based on the NAD cycling method of Zhu and Rand, PLoS One (2012), herein incorporated by reference. COV434 cells were maintained in 6 well plates and treated with the indicated compounds at a concentration of 200 uM for 4 hr. Media was removed, plates were washed in cold PBS and cells were scraped down in NAD extraction buffer containing 10 mM nicotinamide, 50 mM Tris HCl, 0.1% Triton X-100. Cells were homogenised by sonication for 5 seconds, and samples were centrifuged at 7,000 g for 5 min at 4 degrees. Aliquots were taken for later protein assay, and samples were then passed through 10 kDa amicon filters at 14,000 g, 30 min at 4 degrees to remove proteins from the sample. Each sample was measured in technical triplicate, with 25 μL sample added to 100 μL ADH cycling mix (0.2 mg/ml alcohol dehydrogenase enzyme, 2% ethanol, 100 mM Tris pH 8.5). Samples were allowed to cycle for 10 min at room temperature, followed by 50 μL addition of an MTT/PMS solution (0.1 mM phenazine methosulfate, 0.8 mM 3-(4,5-Dimethylthiazol-2-yl)-2,5-diphenyltetrazoliwn bromide), 100 mM Tris-HCl pH 8.5). Plates were then incubated for 15 min and absorbance was measured at 570 nm. NAD concentrations were extrapolated from a standard curve, and normalised to protein concentrations determined by BCA protein assay.

Row | SMILES | degradation in aqueous solution ([1]; 7 weeks, 10 mg/mL) | degradation in aqueous solution ([1]; 38 weeks, 10 mg/mL) [%] | Fold increase compared to NaMN (NAD level) [2] | Fold Increase compared to NaMN on a molar basis (NAD level) [2] | degradation in aqueous solution ([1]; 24 weeks, 10 mg/mL) [%] | degradation in aqueous solution ([1]; 34 weeks, 10 mg/mL) [%] | degradation in aqueous solution ([1]; 25° C., week 10, D2O, 1H-NMR) | degradation in aqueous solution ([1]; 40° C., week 2, D2O, 1H-NMR, study halted) [%] | degradation in aqueous solution ([1]; 60° C., after a week, D2O, 1H-NMR, study halted) [%]
1 | O=C([O-])c1ccc[n+]([C@@H]2O[C@H](COP(=O)([O-])O)[C@@H](O)[C@H]2O)c1.[Na+] [Compound I-001, Sodium 1-((2R,3R,4S,5R)-5-(((hydrogenphosphonato)oxy)methyl)-3,4-dihydroxytetrahydrofuran-2-yl)pyridine-1-ium-3-carboxylate] | under 2% | 4.3 | 3.0 | 3.23 | – | – | – | – | –
2 | O=C([O-])c1ccc[n+]([C@@H]2O[C@H](COP(=O)([O-])O)[C@@H](O)[C@H]2O)c1.[K+] [Compound I-002, Potassium 1-((2R,3R,4S,5R)-5-(((hydrogenphosphonato)oxy)methyl)-3,4-dihydroxytetrahydrofuran-2-yl)pyridine-1-ium-3-carboxylate] | under 2% | – | 0.8 | 0.84 | 4.7 | – | – | – | –
3 | O=C([O-])c1ccc[n+]([C@@H]2O[C@H](COP(=O)([O-])[O-])[C@@H](O)[C@H]2O)c1.[Na+].[Na+] [Compound I-003, Sodium 1-((2R,3R,4S,5R)-3,4-dihydroxy-5-((phosphonatooxy)methyl)-tetrahydrofuran-2-yl)pyridine-1-ium-3-carboxylate] | under 2% | – | 1.0 | 1.08 | – | – | – | – | –
4 | O=C([O-])c1ccc[n+]([C@@H]2O[C@H](COP(=O)([O-])[O-])[C@@H](O)[C@H]2O)c1.[K+].[K+] [Compound I-004, Potassium 1-((2R,3R,4S,5R)-3,4-dihydroxy-5-((phosphonatooxy)methyl)-tetrahydrofuran-2-yl)pyridine-1-ium-3-carboxylate] | under 2% | – | 1.3 | 1.57 | – | 2.6 | – | – | –
5 | O=C([O-])c1ccc[n+]([C@@H]2O[C@H](COP(=O)([O-])[O-])[C@@H](O)[C@H]2O)c1.[K+].[Na+] [Compound I-006, Potassium sodium 1-((2R,3R,4S,5R)-3,4-dihydroxy-5-((phosphonatooxy)methyl)tetrahydrofuran-2-yl)pyridine-1-ium-3-carboxylate] | – | – | 2.3 | 2.72 | – | – | – | – | –
6 | CC(=O)O[C@@H]1[C@H](OC(C)=O)[C@@H](COP(=O)([O-])O)O[C@H]1[n+]1cccc(C(=O)[O-])c1.[Na+] [Compound I-008, Sodium 1-((2R,3R, 4R, 5R)-3,4-diacetoxy-5-(((hydrogenphosphonato)oxy)methyl)tetrahydrofuran-2-yl)pyridine-1-ium-3-carboxylate] | – | – | 0.8 | 0.99 | – | – | – | – | –
7 | CC(=O)O[C@@H]1[C@H](OC(C)=O)[C@@H](COP(=O)([O-])O)O[C@H]1[n+]1cccc(C(=O)[O-])c1.[K+] [Compound I-009, potassium 1-((2R,3R, 4R, 5R)-3,4-diacetoxy-5-(((hydrogenphosphonato)oxy)methyl)tetrahydrofuran-2-yl)pyridine-1-ium-3-carboxylate] | – | – | 1.0 | 1.39 | – | – | – | – | –
8 | O=C(O)c1ccc[n+]([C@@H]2O[C@H](COP(=O)(O)O)[C@@H](O)[C@H]2O)c1 [NaMN, nicotinic acid mononucleotide] | – | – | 1.0 | 1.0 | – | – | about 12.3% | 15.3 | 35
